In brackets after ≈: the same amount, converted by molar mass. Entries after “also recorded” stand apart in the source; their conditions may differ.
Key:
[1] = system: HCT116 cell (colorectal carcinoma); test: XTT cell viability assay, HCT116; assay type: cell-based, human; settings: for IC50: Homo sapiens, HCT-116, XTT
Experimental: (§1) The human cell lines MCF-7 (breast adenocarcinoma), HepG2 (hepatoma), T24 (bladder cancer), CACO-2 (colorectal adenocarcinoma) and MRC5 (lung normal fibroblast) were obtained from the Rio de Janeiro Cell Bank (Rio de Janeiro, RJ, Brazil). The HCT116 cell (colorectal carcinoma), and HT29 cell (colorectal adenocarcinoma) were kindly provided by Dr. Annette K. Larsen (Institut National de la Santé et de la Recherche Médicale - INSERM, Paris, França). All cell lines except MCF-7 were grown in DMEM supplemented with 10% or 20% (for CACO-2) FBS, 100 units.mL^-1 penicillin and 100 μg.mL^-1 streptomycin at 37°C in a humidified atmosphere of 5% CO2. MCF-7 cells were maintained in RPMI-1640 supplemented with 20% FBS at the same conditions described above.
(§2) The cytotoxic potential of the TTHL was evaluated by the XTT assay in human tumor cell lines as well as in MRC5 normal fibroblasts. Cells (1 × 10^4 cells) were seeded on 96-well plates in growth medium and incubated overnight. Afterwards, TTHL (0.5, 1.0, 2.5, 5.0, and 10 μg/mL) was added to each well and incubated for 24, 48, 72, and 120 h. Mitoxantrone, a cytostatic anthracenedione that intercalates in DNA and increases the incidence of double-strand breaks by stabilizing the cleavable complex of topoisomerase II and DNA, was used as positive control. At the end of each treatment, cell viability was assessed according to the manufacturer’s instructions. Briefly, after discarding the medium, 1 mL of XTT labeling mixture was added to the cells and incubated for 2 h at 37°C. Absorbance was measured with a SpectraMax reader (Bio-Rad, USA) at a test wavelength of 492 nm (A492) and a reference wavelength of 690 nm (A690). The final result corresponds to A492-A690. The absorbance of negative control cells was set as 100% viability, and the values for treated cells were calculated as a percentage of the control.
(§3) The IC20, IC50, and IC80 values and their 95% confidence intervals (CI 95%) were obtained by nonlinear regression using GraphPad Prism v5 program (Intuitive Software for Science, San Diego, CA, USA). Selective index (SI) was calculated by IC50 in MRC5 cells/IC50 in tumoral cells. All experiments were independently repeated at least three times, with triplicate samples for each treatment. Results are expressed as means ± standard deviation (SD). Data were analyzed by one-way analysis of variance (ANOVA), and means were compared using Tukey test, with P ≤ 0.05 considered as statistically significant.

T24 (bladder cancer) = test: XTT cell viability assay, T24; assay type: cell-based, human; settings: for IC50: Homo sapiens, XTT
Experimental: as §1, §2, §3

[2] = system: S. cerevisiae EG110 (sod2Δ); test: Yeast survival assay, EG110 (sod2Δ); assay type: cell-based, Saccharomyces cerevisiae; settings: for survival (percentage in relation to negative control): STAT cells, 1 h in PBS 30°C
Experimental: (§4) Media, solutions and buffers were prepared according to Burke et al.. YPD medium (0.5% yeast extract, 2% peptone, 2% glucose) was used for routine growth. Synthetic medium SC (0.67% yeast nitrogen base, 0.1% ammonium sulfate, 2% glucose) supplemented with the appropriate amino acids and bases ([…]) was used for the detection of mutations.
(§5) Stationary phase (STAT) cultures were obtained by inoculation of a single colony into liquid YPD. We chose to work in the stationary phase of growth because this resembles most cells of multicellular organisms in important aspects: (i) most energy comes from mitochondrial respiration; (ii) the cells have left the active cell cycle and have entered the Go phase; and (iii) damage accumulates over time.
(§6) STAT cells (1 × 10^8 cells/mL) were exposed to TTHL (10–500 μg/mL) and incubated under growth conditions for 1 h in PBS at 30°C. Cells were then washed and treated with H2O2 (5 mM) in PBS for another hour. Suitable aliquots were plated in triplicate on solid YPD (2–3 days, 30°C) and colony-forming units were counted. Sensitivity was expressed as a percentage of survival in relation to the negative control (solvent).

[3] = system: S. cerevisiae EG118 (sod1Δ); test: Yeast survival assay, EG118 (sod1Δ); assay type: cell-based, Saccharomyces cerevisiae; settings: for survival (percentage in relation to negative control): STAT cells, 1 h in PBS 30°C
Experimental: as §4, §5, §6

[4] = system: S. cerevisiae haploid strain XV185-14c; test: Point and frameshift mutations and survival in XV185-14c haploid yeast; assay type: cell-based, Saccharomyces cerevisiae; settings: for HIS1/10^7 survivors (locus-specific revertants) / HOM3/10^8 survivors (locus-specific revertants, frameshift) / LYS1/10^8 survivors (locus non-specific revertants) / Survival (%): XV185-14c, STAT cells treated in PBS; for Survival (%): 1 h 30°C
Experimental: as §4, §5
Cell cultures were grown as described above, exposed to TTHL in concentrations ranging from 10 to 500 μg/mL, and then incubated in PBS for 1 h at 30°C. Two alleles, his1-798 and lys1-1, were used to detect point mutagenesis. The suppressible ochre nonsense mutant allele lys1-1 can be reverted either by locus-specific sequence alteration (true reversion) or by a forward mutation in a suppressor gene. […] Survival was determined on SC medium (3–5 days, 30°C) and mutation induction (HIS, LYS or HOM revertants) on media lacking the appropriate amino acid (7–10 days, 30°C). Induction of reversion of point mutation to his1-798, ochre allele lys1-1, and frameshift mutation values were scored per number of surviving cells.

[5] = system: S. cerevisiae EG103 (SOD-WT); test: Yeast survival assay, EG103 (SOD-WT); assay type: cell-based, Saccharomyces cerevisiae; settings: STAT cells, 1 h in PBS 30°C
Experimental: as §4, §5, §6

[6] = deficient in superoxide dismutase

C=C(C)[C@@H]1CC[C@@]2(C)[C@H]1[C@H]1CC[C@@H]3[C@@]4(C)CC[C@H](O)C(C)(C)[C@@H]4[C@H](O)C[C@@]3(C)[C@]1(C)C[C@@H]2O [TTHL, 3β,6β,16β-trihydroxy-lup-20(29)-ene]
IC50 ([1]; HCT116, 24 h treatment): 7.05 ± 0.21 µg/mL (≈ 15.4 µM)
IC50 ([1]; HCT116, 48 h treatment): 5.87 ± 0.04 µg/mL (≈ 12.8 µM)
IC50 ([1]; HCT116, 72 h treatment): 5.2 ± 0.28 µg/mL (≈ 11.3 µM)
IC50 ([1]; HCT116, 120 h treatment): 4.5 ± 0.29 µg/mL (≈ 9.81 µM)
Selectivity index (SI) ([1]; IC50 in MRC5 cells/IC50 in HCT116, 24 h): 1 X
Selectivity index (SI) ([1]; IC50 in MRC5 cells/IC50 in HCT116, 48 h): 1 X
Selectivity index (SI) ([1]; IC50 in MRC5 cells/IC50 in HCT116, 72 h): 1 X
Selectivity index (SI) ([1]; IC50 in MRC5 cells/IC50 in HCT116, 120 h): 1.5 X
IC50 (T24 (bladder cancer); T24, 24 h treatment): 5.55 ± 0.64 µg/mL (≈ 12.1 µM)
IC50 (T24 (bladder cancer); T24, 48 h treatment): 5.2 ± 0.42 µg/mL (≈ 11.3 µM)
IC50 (T24 (bladder cancer); T24, 72 h treatment): 1.09 ± 0.14 µg/mL (≈ 2.38 µM)
IC50 (T24 (bladder cancer); T24, 120 h treatment): 0.39 ± 0.1 µg/mL (≈ 0.85 µM)
Selectivity index (SI) (T24 (bladder cancer); IC50 in MRC5 cells/IC50 in T24, 24 h): 1.5 X
Selectivity index (SI) (T24 (bladder cancer); IC50 in MRC5 cells/IC50 in T24, 48 h): 1.5 X
Selectivity index (SI) (T24 (bladder cancer); IC50 in MRC5 cells/IC50 in T24, 72 h): 7 X
Selectivity index (SI) (T24 (bladder cancer); IC50 in MRC5 cells/IC50 in T24, 120 h): 17 X
survival (percentage in relation to negative control) ([2]; TTHL 10 μg/mL): 83.20 ± 3.68 %
survival (percentage in relation to negative control) ([2]; TTHL 50 μg/mL): 72.90 ± 7.07 %
survival (percentage in relation to negative control) ([2]; TTHL 100 μg/mL): 62.25 ± 3.32 %
survival (percentage in relation to negative control) ([2]; TTHL 500 μg/mL): 56.65 ± 1.06 %
sensitivity of the strain to TTHL (in words) [2, 6]: hypersensitive
survival (percentage in relation to negative control) ([3]; TTHL 10 μg/mL): 92.60 ± 2.83%
survival (percentage in relation to negative control) ([3]; TTHL 50 μg/mL): 89.30 ± 0.85 %
survival (percentage in relation to negative control) ([3]; TTHL 100 μg/mL): 75.65 ± 4.60 %
survival (percentage in relation to negative control) ([3]; TTHL 500 μg/mL): 69.30 ± 3.68 %
sensitivity of the strain to TTHL (in words) [3, 6]: hypersensitive
mutagenicity in yeast strain XV185-14c (in words) ([4]; 10 to 500 μg/mL, his1-798, lys1-1, hom3-10 loci): induced mutagenicity; also recorded: only able to induce mutagenesis on the assessed loci at the highest concentration
HIS1/10^7 survivors (locus-specific revertants) ([4]; 10 μg/mL): 10.77 ± 4.40 /10^7 survivors
HOM3/10^8 survivors (locus-specific revertants, frameshift) ([4]; 10 μg/mL): 6.11 ± 1.58 /10^8 survivors
LYS1/10^8 survivors (locus non-specific revertants) ([4]; 10 μg/mL): 4.78 ± 0.63 /10^8 survivors
Survival (%) ([4]; 10 μg/mL): 84.90%
HIS1/10^7 survivors (locus-specific revertants) ([4]; 50 μg/mL): 13.33 ± 1.10 /10^7 survivors
HOM3/10^8 survivors (locus-specific revertants, frameshift) ([4]; 50 μg/mL): 8.80 ± 0.14 /10^8 survivors
LYS1/10^8 survivors (locus non-specific revertants) ([4]; 50 μg/mL): 5.68 ± 2.22 /10^8 survivors
Survival (%) ([4]; 50 μg/mL): 72.83%
HIS1/10^7 survivors (locus-specific revertants) ([4]; 100 μg/mL): 20.83 ± 1.80 /10^7 survivors
HOM3/10^8 survivors (locus-specific revertants, frameshift) ([4]; 100 μg/mL): 8.49 ± 2.12 /10^8 survivors
LYS1/10^8 survivors (locus non-specific revertants) ([4]; 100 μg/mL): 9.72 ± 0.55 /10^8 survivors
Survival (%) ([4]; 100 μg/mL): 65.00%
HIS1/10^7 survivors (locus-specific revertants) ([4]; 500 μg/mL): 30.10 ± 0.21 /10^7 survivors
HOM3/10^8 survivors (locus-specific revertants, frameshift) ([4]; 500 μg/mL): 11.15 ± 0.92 /10^8 survivors
LYS1/10^8 survivors (locus non-specific revertants) ([4]; 500 μg/mL): 14.40 ± 3.40 /10^8 survivors
Survival (%) ([4]; 500 μg/mL): 69.00%
survival (percentage in relation to negative control) ([5]; TTHL 10 μg/mL): 100 ± 2.83%
survival (percentage in relation to negative control) ([5]; TTHL 50 μg/mL): 87.65 ± 5.16 %
survival (percentage in relation to negative control) ([5]; TTHL 100 μg/mL): 79.45 ± 1.91 %
survival (percentage in relation to negative control) ([5]; TTHL 500 μg/mL): 67.65 ± 3.04 %

— PMC4129108, “The natural triterpene 3β,6β,16β-trihydroxy-lup-20(29)-ene obtained from the flowers of Combretum leprosum induces apoptosis in MCF-7 breast cancer cells” (BMC Complementary and Alternative Medicine, 2014)
